# Data published in patent US20070275968A1, “Substituted Biphenyl Derivative” (priority 2004, published 2007).
row,melting point,Structure (SMILES)
1,126 to 129 °C,"Cc1cccc(-c2[nH]c(CC(C)C)nc2-c2cccc(-c3ccc(C(=O)NC4CCOCC4)cc3)c2)n1 [Example 45, N-(Tetrahydropyran-4-yl)-4-{3-[2-isobutyl-5-(6-methylpyridin-2-yl)-1H-imidazol-4-yl]phenyl}benzamide]"
2,127 to 128 °C,"Cc1cccc(-c2[nH]c(C3CC3)nc2-c2cccc(-c3ccc(C(=O)NC4CCOCC4)cc3)c2)n1 [Example 46, N-(Tetrahydropyran-4-yl)-4-{3-[2-cyclopropyl-5-(6-methylpyridin-2-yl)-1H-imidazol-4-yl]phenyl}benzamide]"
3,145 °C,"Cc1cccc(-c2[nH]c(C(C)C)nc2-c2cccc(-c3ccc(C(=O)NN4CCOCC4)cc3)c2)n1 [Example 51, N-(Morpholin-4-yl)-4-{3-[2-isopropyl-5-(6-methylpyridin-2-yl)-1H-imidazol-4-yl]-phenyl}benzamide]"
4,136 to 140 °C,"Cc1cccc(-c2nc(C(C)C)[nH]c2-c2cccc(-c3ccc(C(=O)N4CC[S+]([O-])CC4)cc3)c2)n1 [Example 56, 4-({3′-[2-Isopropyl-4-(6-methylpyridin-2-yl)-1H-imidazol-5-yl]-1,1′-biphenyl-4-yl}carbonyl)thiomorpholine 1-oxide]"
5,141 to 145 °C,"Cc1cccc(-c2nc(C(C)C)[nH]c2-c2cccc(-c3ccc(C(=O)N4CCS(=O)(=O)CC4)cc3)c2)n1 [Example 57, 4-({3′-[2-Isopropyl-4-(6-methylpyridin-2-yl)-1H-imidazol-5-yl]-1,1′-biphenyl-4-yl}carbonyl)thiomorpholine 1,1-dioxide]"
6,113 to 115 °C,"Cc1cccc(-c2[nH]c(C(C)C)nc2-c2ccc(F)c(-c3ccc(S(C)(=O)=O)cc3)c2)n1 [Example 61, 2-{4-[6-Fluoro-4′-(methylsulfonyl)-1,1′-biphenyl-3-yl]-2-isopropyl-1H-imidazol-5-yl}-6-methylpyridine]"
7,107 to 109 °C,"Cc1cccc(-c2nc(N)sc2-c2cccc(-c3ccc(S(C)(=O)=O)cc3)c2)n1 [Example 62, 4-(6-Methylpyridin-2-yl)-5-[4′-(methylsulfonyl)-1,1′-biphenyl-3-yl]-1,3-thiazol-2-amine]"
8,108 to 110 °C,"CCc1cccc(-c2[nH]c(C(C)C)nc2-c2cccc(-c3ccc(S(C)(=O)=O)cc3)c2)n1 [Example 64, 2-Ethyl-6-{2-isopropyl-4-[4′-(methylsulfonyl)-1,1′-biphenyl-3-yl]-1H-imidazol-5-yl}pyridine]"
9,153 to 155 °C,"Cc1cccc(-c2[nH]c(C(C)C)nc2-c2ccc(F)c(-c3ccc(C(=O)NN4CCOCC4)cc3)c2)n1 [Example 66, N-(Morpholin-4-yl)-4-{2-fluoro-5-[2-isopropyl-5-(6-methylpyridin-2-yl)-1H-imidazol-4-yl]phenyl}benzamide]"
10,146 to 148 °C,"Cc1cccc(-c2[nH]c(C(C)C)nc2-c2cccc(-c3ccc(NC(=O)NN4CCOCC4)cc3)c2)n1 [Example 67, N-{3′-[2-Isopropyl-5-(6-methylpyridin-2-yl)-1H-imidazol-4-yl]-1,1′-biphenyl-4-yl}-N′-morpholin-4-ylurea]"
11,128 to 130 °C,"Cc1cccc(-c2[nH]c(C(C)C)nc2-c2cccc(-c3ccc(C)[nH]3)c2)n1 [Example 69, 2-{2-Isopropyl-4-[3-(5-methyl-1H-pyrrol-2-yl)phenyl]-1H-imidazol-5-yl}-6-methylpyridine]"
12,84 to 86 °C,"Cc1cccc(-c2nc(C(C)C)[nH]c2-c2cccc(-c3cnn(C)c3)c2)n1 [Example 70, 2-{2-Isopropyl-5-[3-(1-methyl-1H-pyrazol-4-yl)phenyl]-1H-imidazol-4-yl}-6-methylpyridine]"
13,179 to 184 °C,"Cc1cccc(-c2[nH]c(C(C)C)nc2-c2cccc(-c3ccc(NS(C)(=O)=O)cc3F)c2)n1 [Example 73, N-{2-Fluoro-3′-[2-isopropyl-5-(6-methylpyridin-2-yl)-1H-imidazol-4-yl]-1,1′-biphenyl-4-yl}methanesulfonamide]"
14,124 to 128 °C,"Cc1cccc(-c2[nH]c(C(C)C)nc2-c2cccc(-c3ccc(NS(=O)(=O)C4CC4)cc3F)c2)n1 [Example 74, N-{2-Fluoro-3′-[2-isopropyl-5-(6-methylpyridin-2-yl)-1H-imidazol-4-yl]-1,1′-biphenyl-4-yl}cyclopropanesulfonamide]"
15,246 to 248 °C,"Cc1cccc(-c2[nH]c(C(C)C)nc2-c2cccc(-c3ccc(S(N)(=O)=O)cc3F)c2)n1 [Example 75, 2-Fluoro-3′-[2-isopropyl-5-(6-methylpyridin-2-yl)-1H-imidazol-4-yl]-1,1′-biphenyl-4-sulfonamide]"
16,119 to 124 °C,"Cc1cccc(-c2[nH]c(C(C)C)nc2-c2cccc(-c3ccc(N)cn3)c2)n1 [Example 76, 6-{3-[2-Isopropyl-5-(6-methylpyridin-2-yl)-1H-imidazol-4-yl]phenyl}pyridine-3-amine]"
17,112 to 114 °C,"Cc1cccc(-c2[nH]c(C(C)C)nc2-c2cccc(-c3cc[nH]c3)c2)n1 [Example 78, 2-{2-Isopropyl-4-[3-(1H-pyrrol-3-yl)phenyl]-1H-imidazol-5-yl}-6-methylpyridine]"

row,melting point,Structure (SMILES)
1,145 to 148 °C,"Cc1cccc(-c2[nH]c(C(C)C)nc2-c2cccc(-c3ccc4c(c3)C(=O)CC[S+]4[O-])c2)n1 (stereo not shown) [Example 80, 6-{3-[2-Isopropyl-5-(6-methylpyridin-2-yl)-1H-imidazol-4-yl]phenyl}-2,3-dihydro-4H-thiochromen-4-one 1-oxide]"
2,115 to 119 °C,"Cc1cccc(-c2[nH]c(C(C)C)nc2-c2cccc(-c3ccc4c(c3)C(=O)CCS4(=O)=O)c2)n1 [Example 81, 6-{3-[2-Isopropyl-5-(6-methylpyridin-2-yl)-1H-imidazol-4-yl]phenyl}-2,3-dihydro-4H-thiochromen-4-one 1,1-dioxide]"
3,115 to 117 °C,"Cc1cccc(-c2[nH]c(C(C)C)nc2-c2cccc(-c3ccc4c(c3)CCCS4)c2)n1 [Example 82, 2-{4-[3-(3,4-Dihydro-2H-thiochromen-6-yl)phenyl]-2-isopropyl-1H-imidazol-5-yl}-6-methylpyridine]"
4,136 to 139 °C,"Cc1cccc(-c2[nH]c(C(C)C)nc2-c2cccc(-c3ccc4c(c3)CCC[S+]4[O-])c2)n1 (stereo not shown) [Example 83, 2-{2-Isopropyl-4-[3-(1-oxido-3,4-dihydro-2H-thiochromen-6-yl)phenyl]-1H-imidazol-5-yl}-6-methylpyridine]"
5,137 to 138 °C,"Cc1cccc(-c2[nH]c(C(C)C)nc2-c2cccc(-c3ccc4c(c3)C=CS4(=O)=O)c2)n1 [Example 85, 2-{4-[3-(1,1-Dioxido-1-benzothien-5-yl)phenyl]-2-isopropyl-1H-imidazol-5-yl}-6-methylpyridine]"
6,128 to 131 °C,"Cc1cccc(-c2[nH]c(C(C)C)nc2-c2cccc(-c3ccc4c(c3)CCS4(=O)=O)c2)n1 [Example 86, 2-{4-[3-(1,1-Dioxido-2,3-dihydro-1-benzothien-5-yl)phenyl]-2-isopropyl-1H-imidazol-5-yl}-6-methylpyridine]"
7,133 to 136 °C,"Cc1cccc(-c2[nH]c(C(C)C)nc2-c2cccc(-c3ccc(NS(=O)(=O)C4CC4)cn3)c2)n1 [Example 87, N-(6-{3-[2-Isopropyl-5-(6-methylpyridin-2-yl)-1H-imidazol-4-yl]phenyl}pyridin-3-yl)cyclopropanesulfonamide]"
8,112 to 114 °C,"Cc1cccc(-c2[nH]c(C(C)C)nc2-c2cccc(-c3ccc(S(C)(=O)=O)cn3)c2)n1 [Example 88, 2-{3-[2-Isopropyl-5-(6-methylpyridin-2-yl)-1H-imidazol-4-yl]phenyl}-5-(methylsulfonyl)pyridine]"
9,158 to 161 °C,"Cc1cccc(-c2[nH]c(C(C)C)nc2-c2cccc(-n3ccnc3)c2)n1 [Example 90, 2-{4-[3-(1H-Imidazol-1-yl)phenyl]-2-isopropyl-1H-imidazol-5-yl}-6-methylpyridine]"
10,145 °C,"Cc1cccc(-c2[nH]c(C(C)C)nc2-c2ccc(F)c(-c3ccc(NC(=O)NN4CCN(C)CC4)cc3)c2)n1 [Example 92, N-{2′-Fluoro-5′-[2-isopropyl-5-(6-methylpyridin-2-yl)-1H-imidazol-4-yl]-1,1′-biphenyl-4-yl}-N′-(4-methylpiperazin-1-yl)urea]"
11,103 to 106 °C,"Cc1cccc(-c2[nH]c(C(C)C)nc2-c2ccc(F)c(-c3ccc[nH]3)c2)n1 [Example 93, 2-{4-[4-Fluoro-3-(1H-pyrrol-2-yl)phenyl]-2-isopropyl-1H-imidazol-5-yl}-6-methylpyridine]"
12,145 °C,"Cc1cccc(-c2[nH]c(C(C)C)nc2-c2ccc(F)c(-c3ccc(NC(=O)NC4CCN(C)CC4)cc3)c2)n1 [Example 95, N-{2′-Fluoro-5′-[2-isopropyl-5-(6-methylpyridin-2-yl)-1H-imidazol-4-yl]-1,1′-biphenyl-4-yl}-N′-(1-methylpiperidin-4-yl)urea]"
13,109 to 111 °C,"Cc1cccc(-c2[nH]c(C(C)C)nc2-c2ccc(F)c(-c3ccc(N4CCOCC4)cc3)c2)n1 [Example 100, 4-{2′-Fluoro-5′-[2-isopropyl-5-(6-methylpyridin-2-yl)-1H-imidazol-4-yl]-1,1′-biphenyl-4-yl}morpholine]"
14,160 to 161 °C,"Cc1cccc(-c2[nH]c(C(C)C)nc2-c2ccc(F)c(-c3ccc(C(=O)O)cc3)c2)n1 [Example 101, 2′-Fluoro-5′-[2-isopropyl-5-(6-methylpyridin-2-yl)-1H-imidazol-4-yl]-1,1′-biphenyl-4-carboxylic acid]"
15,233 to 235 °C,"Cc1cccc(-c2[nH]c(C(C)C)nc2-c2ccc(F)c(-c3c[nH]nn3)c2)n1 [Example 106, 2-{4-[4-Fluoro-3-(1H-1,2,3-triazol-4-yl)phenyl]-2-isopropyl-1H-imidazol-5-yl}-6-methylpyridine]"
16,76 to 78 °C,"CCn1cc(-c2cc(-c3[nH]c(C(C)C)nc3-c3cccc(C)n3)ccc2F)cn1 [Example 107, 2-{5-[3-(1-Ethyl-1H-pyrazol-4-yl)-4-fluorophenyl]-2-isopropyl-1H-imidazol-4-yl}-6-methylpyridine]"
17,84 to 85 °C,"Cc1cccc(-c2nc(C(C)C)[nH]c2-c2ccc(F)c(-c3cnn(C(C)C)c3)c2)n1 [Example 108, 2-{5-[4-Fluoro-3-(1-isopropyl-1H-pyrazol-4-yl)phenyl]-2-isopropyl-1H-imidazol-4-yl}-6-methylpyridine]"
